In brackets after ≈: the same amount, converted by molar mass. Counter-ions that a name gives are not always drawn. Like-named read-outs stand apart in the source and are kept apart here.
What was measured:
Format in all cases: physicochemical
[1] = Log P (free base)
From the text: (§1) Table 1 Physical/chemical properties of MK-A.

[2] = Solubility in H2O, SGF and FaSSIF
From the text: as §1

[3] = Solid-state chemical/physical stability of drug forms; details: chemical and physical
From the text: as §1

[4] = Chemical stability under accelerated conditions (% area)
Experimental: The stability of various formulations of MK-A was evaluated under accelerated conditions (Table 4). Levels of potency reduction right after the solid dispersion preparation were 1.7% and 4.6% for spray drying and hot melt extrusion, respectively. The higher potency reduction in HME was attributed to the higher processing temperature of the HME process (~140 °C) at which thermal degradation of the drug occurred. The potency of the amorphous form of active was further reduced after 2 weeks storage at 40 °C/75% relative humidity (RH) conditions in closed glass vials by up to as much as 8.5% loss of potency in the solid dispersion via HME.

[5] = Fasted Simulated Small Intestine Fluid (FaSSIF)

With CS[C@@]1(C(=O)Nc2ccc3[nH]nc(-c4ccc(OC(C)C)nc4)c3c2)CCN(CC(=O)N2CC=C(c3ccc(-c4ncn(C)n4)cc3)CC2)C1 [MK-A HCl salt] the logP [1] was 4.5, the solubility [2, 5] was 21 µg/mL and the solubility ([2]; simulated gastric fluid (SGF), simulated gastric fluid, Simulated Gastric Fluid (SGF), read-out: Solubility) was 525 µg/mL. For the same molecule, the solubility ([2]; water, pH 3.5, water, H2O (pH = 3.5), read-out: Solubility) was 661 µg/mL and the Stability [3] was “Chemically stable in the solid-state; Physically stable at various temperatures and humidity conditions but sensitive to mechanical stress”.
For CS[C@@]1(C(=O)Nc2ccc3[nH]nc(-c4ccc(OC(C)C)nc4)c3c2)CCN(CC(=O)N2CC=C(c3ccc(-c4ncn(C)n4)cc3)CC2)C1 [MK-A free base], the “Log P (free base)” value [1] was 4.5, the solubility [2, 5] was 2 µg/mL (≈ 2.89 µM) and the solubility ([2]; Simulated Gastric Fluid (SGF)) was 907 µg/mL (≈ 1310 µM). The solubility ([2]; water, pH 7.3, water, H2O (pH = 7.3), read-out: Solubility) was 0.3 µg/mL (≈ 0.434 µM), the Stability [3] was “Chemically and physically stable” and the “2 Weeks at 40 °C/75% RH Closed (% Area)” value ([4]; 2 weeks, 40 °C/75% RH, closed glass vials) was 98.8 % Area. For the same molecule, the “Initial (% Area)” value ([4]; initial, after preparation) was 98.8 % Area.

— PMC6160931, “Processing Impact on Performance of Solid Dispersions” (Pharmaceutics, 2018)
